The target of this experiment is T1, human GPR4 (Homo sapiens, UniProt P46093).
T1 construct: expressed in transfected cells
The experiment can be described thus: Cell-based assay for human GPR4 activity (pH-induced cAMP formation, HTRF). Conditions: HeLa cells stably expressing human GPR4, pH-induced cAMP formation. As to the method: a) Cell-Based Assay for Human GPR4 Activity
HeLa cells stably expressing human GPR4 were established by transfecting the cells with a construct containing the human GPR4 coding sequence. The cells were grown in DMEM/HAM's F12 medium supplemented with 10% fetal calf serum (FCS), 100 u/ml penicillin, 100 μg/ml streptomycin and 400 μg/ml G418 and 10 mM Hepes pH 8.0. pH-induced formation of cAMP was determined using the HTRF technology as provided by CisBio Inc. The cells were seeded in 384-well plates and cultured for 24 hours at 37° C., 5% CO2 before performing the assay. Medium was removed and 10 μl buffer A (HBS, 10 mM Hepes, pH 8, 2 mM IBMX) was added. For compound testing, buffer A with 2× concentrated compounds was used. Cells were incubated for 15 min at room temperature. 10 μl buffer B (HBS, 30 mM Hepes, specific pH) was added to reach the appropriate final pH for stimulation (see below) and incubation was continued for 15 min at room temperature. […] HBS: 130 mM NaCl, 0.9 mM NaH2PO4, 5.4 mM KCl, 0.8 mM MgSO4, CaCl2 1.8 mM, 25 mM glucose, 10-30 mM Hepes. Adjustment of HBS buffers: Bf A Bf B Final stimulation pH (1 volume buffer A+1 volume buffer B)
Compounds were diluted from fresh stock solutions at 10 mM in DMSO to 2 mM and then used for serial dilutions in DMSO.
(In general: cAMP levels reflect the balance of adenylyl cyclase and phosphodiesterase activity.)

Counter-ions that a name gives are not always drawn.

T1 sequence (P46093 whole entry): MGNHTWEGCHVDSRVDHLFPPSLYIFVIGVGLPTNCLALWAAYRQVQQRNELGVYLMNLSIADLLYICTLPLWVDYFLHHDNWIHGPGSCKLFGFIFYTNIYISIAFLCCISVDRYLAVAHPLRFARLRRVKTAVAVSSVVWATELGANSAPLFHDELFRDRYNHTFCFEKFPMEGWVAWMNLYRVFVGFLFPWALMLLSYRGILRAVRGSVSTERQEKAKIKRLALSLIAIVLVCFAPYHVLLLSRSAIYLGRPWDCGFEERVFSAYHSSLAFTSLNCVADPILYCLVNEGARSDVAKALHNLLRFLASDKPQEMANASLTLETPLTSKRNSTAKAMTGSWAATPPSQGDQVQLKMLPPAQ

A word on the IC50: it is the concentration at which inhibition is half-maximal. A high value points to lower potency. Turning to `CCc1nc2c(C)cc(C)nc2n1Cc1ccc(/C=C/CN2CCN(CCOC)CC2)cc1` [Example 62, 2-Ethyl-3-(4-{(E)-3-[4-(2-methoxy-ethyl)-piperazin-1-yl]-propenyl}-benzyl)-5,7-dimethyl-3H-imidazo[4,5-b]pyridine dihydrochloride], the IC50 worked out at 552 nM. This counts as sub-micromolar.
Take `CCOCCN1CCN(C/C=C/c2ccc(Cn3c(CC)nc4c(C)cc(C)nc43)cc2)CC1` [Example 63, 3-(4-{(E)-3-[4-(2-Ethoxy-ethyl)-piperazin-1-yl]-propenyl}-benzyl)-2-ethyl-5,7-dimethyl-3H-imidazo[4,5-b]pyridine]: the IC50 amounted to 829 nM.
In turn, `CCc1nc2c(C)cc(C)nc2n1Cc1ccc(/C=C/CN2CCN(CCCOC)CC2)cc1` [Example 64, 2-Ethyl-3-(4-{(E)-3-[4-(3-methoxy-propyl)-piperazin-1-yl]-propenyl}-benzyl)-5,7-dimethyl-3H-imidazo[4,5-b]pyridine dihydrochloride] displayed an IC50 of 367 nM.
In turn, `CCc1nc2c(C)cc(C)nc2n1Cc1ccc(/C=C/CN2CCN(CC(=O)N(C)C)CC2)cc1` [Example 65, 2-(4-{(E)-3-[4-(2-Ethyl-5,7-dimethyl-imidazo[4,5-b]pyridin-3-ylmethyl)-phenyl]-allyl}-piperazin-1-yl)-N,N-dimethyl-acetamide] showed an IC50 of 647 nM.
With `CCc1nc2c(C)cc(C)nc2n1Cc1ccc(/C=C/CN2CCN(CCN3CCOCC3)CC2)cc1` [Example 66, 2-Ethyl-5,7-dimethyl-3-(4-{(E)-3-[4-(2-morpholin-4-yl-ethyl)-piperazin-1-yl]-propenyl}-benzyl)-3H-imidazo[4,5-b]pyridine trihydrochloride], the IC50 is 222 nM.
`CCc1nc2c(C)cc(C)nc2n1Cc1ccc(/C=C/CN2CCN(Cc3ccc(OC)c(OC)c3)CC2)cc1` [Example 67, 3-(4-{(E)-3-[4-(3,4-Dimethoxy-benzyl)-piperazin-1-yl]-propenyl}-benzyl)-2-ethyl-5,7-dimethyl-3H-imidazo[4,5-b]pyridine trihydrochloride] displayed an IC50 of 407 nM.
The result for `CCc1nc2c(C)cc(C)nc2n1Cc1ccc(/C=C/CN2CCN(CCCF)CC2)cc1` [Example 68, 2-Ethyl-3-(4-{(E)-3-[4-(3-fluoro-propyl)-piperazin-1-yl]-propenyl}-benzyl)-5,7-dimethyl-3H-imidazo[4,5-b]pyridine] reads 535 nM; that for `CCc1nc2c(C)cc(C)nc2n1Cc1ccc(/C=C/CN2CCN(CC)C(C)C2)cc1` (stereo not drawn) [Example 69, 2-Ethyl-3-{4-[(E)-3-(4ethyl-3-methyl-piperazin-1-yl)-propenyl]-benzyl}-5,7-dimethyl-3H-imidazo[4,5-b]pyridine dihydrochloride], 201 nM; that for `CCc1nc2c(C)cc(C)nc2n1Cc1ccc(/C=C/CN2CCN(C)C[C@@H]2C(C)C)cc1` [Example 70, 2-Ethyl-3-{4-[(E)-3-((S)-2-isopropyl-4-methyl-piperazin-1-yl)-propenyl]-benzyl}-5,7-dimethyl-3H-imidazo[4,5-b]pyridine dihydrochloride], 496 nM.
`CCc1nc2c(C)cc(C)nc2n1Cc1ccc(/C=C/CN2CCN(C(C)C)C(C)C2)cc1` (stereo not drawn) [Example 71, 2-Ethyl-3-{4-[(E)-3-(4-isopropyl-3-methyl-piperazin-1-yl)-propenyl]-benzyl}-5,7-dimethyl-3H-imidazo[4,5-b]pyridine] returned an IC50 of 530 nM.
`CCc1nc2c(C)cc(C)nc2n1Cc1ccc(/C=C/CN2CCN(C(C)C)C(CC)C2)cc1` (stereo not drawn) [Example 72, 2-Ethyl-3-{4-[(E)-3-(3-ethyl-4-isopropyl-piperazin-1-yl)-propenyl]-benzyl}-5,7-dimethyl-3H-imidazo[4,5-b]pyridine dihydrochloride]: the IC50 amounted to 452 nM. The IC50 values of the last two molecules are within 1.5-fold of each other.
`CCc1nc2c(C)cc(C)nc2n1Cc1ccc(/C=C/CN2CCN3CCCC3C2C)cc1` (stereo not drawn) [Example 73, 2-Ethyl-5,7-dimethyl-3-{4-[(E)-3-(1-methyl-hexahydro-pyrrolo[1,2-a]pyrazin-2-yl)-propenyl]-benzyl}-3H-imidazo[4,5-b]pyridine dihydrochloride] showed an IC50 of 887 nM.
`CCc1nc2c(C)cc(C)nc2n1Cc1ccc(/C=C/CN2C[C@H]3C[C@@H]2CN3CC)cc1` [Example 74, 2-Ethyl-3-{4-[(E)-3-((1R,4R)-5-ethyl-2,5-diaza-bicyclo[2.2.1]hept-2-yl)-propenyl]-benzyl}-5,7-dimethyl-3H-imidazo[4,5-b]pyridine] yielded an IC50 of 323 nM.
The figure for `CCc1nc2c(C)cc(C)nc2n1Cc1ccc(/C=C/CN2C[C@H]3C[C@@H]2CN3CC(C)C)cc1` [Example 75, 2-Ethyl-3-{4-[(E)-3-((1R,4R)-5-isobutyl-2,5-diaza-bicyclo[2.2.1]hept-2-yl)-propenyl]-benzyl}-5,7-dimethyl-3H-imidazo[4,5-b]pyridine dihydrochloride] is 146 nM; for `CCc1nc2c(C)cc(C)nc2n1Cc1ccc(/C=C/CN2C[C@H]3C[C@@H]2CN3CC2CC2)cc1` [Example 76, 3-{4-[(E)-3-((1R,4R)-5-Cyclopropylmethyl-2,5-diaza-bicyclo[2.2.1]hept-2-yl)-propenyl]-benzyl}-2-ethyl-5,7-dimethyl-3H-imidazo[4,5-b]pyridine trihydrochloride] it is 111 nM.
`CCc1nc2c(C)cc(C)nc2n1Cc1ccc(/C=C/CN2CCOC(CNC(=O)OC(C)(C)C)C2)cc1` (stereo not drawn) [Example 77, (4-{(E)-3-[4-(2-Ethyl-5,7-dimethyl-imidazo[4,5-b]pyridin-3-ylmethyl)-phenyl]-allyl}-morpholin-2-ylmethyl)-carbamic acid tert-butyl ester] showed an IC50 of 512 nM.
For the molecule `CCc1nc2c(C)cc(C)nc2n1Cc1ccc(/C=C/CN2CCOC(CN)C2)cc1` (stereo not drawn) [Example 78, C-(4-{(E)-3-[4-(2-Ethyl-5,7-dimethyl-imidazo[4,5-b]pyridin-3-ylmethyl)-phenyl]-allyl}-morpholin-2-yl)-methylamine dihydrochloride], the IC50 was 114 nM.
With `CCc1nc2c(C)cc(C)nc2n1Cc1ccc(/C=C/CN2CCOC(CNC(C)C)C2)cc1` (stereo not drawn) [Example 79, (4-{(E)-3-[4-(2-Ethyl-5,7-dimethyl-imidazo[4,5-b]pyridin-3-ylmethyl)-phenyl]-allyl}-morpholin-2-ylmethyl)-isopropyl-amine], the midpoint of inhibition, the IC50, lay at 194 nM.
The molecule `CCc1nc2c(C)cc(C)nc2n1Cc1ccc(/C=C/Cn2ccnc2)cc1` [Example 80, 2-Ethyl-3-[4-((E)-3-imidazol-1-yl-propenyl)-benzyl]-5,7-dimethyl-3H-imidazo[4,5-b]pyridine hydrochloride] registered an IC50 of 485 nM.
For `CCCc1nc2c(C)cc(C)nc2n1Cc1ccc(/C=C/CN2CCC(N3CCCCC3)CC2)cc1` [Example 82, 1′-{(E)-3-[4-(5,7-Dimethyl-2-propyl-imidazo[4,5-b]pyridin-3-ylmethyl)-phenyl]-allyl}-[1,4′]bipiperidine dihydrochloride], half-maximal inhibition (IC50) required 455 nM.
Consider `Cc1cc(C)c2nc(C(C)C)n(Cc3ccc(/C=C/CN4CCC(N5CCCCC5)CC4)cc3)c2n1` [Example 83, 1′-{(E)-3-[4-(2-Isopropyl-5,7-dimethyl-imidazo[4,5-b]pyridin-3-ylmethyl)-phenyl]-allyl}-[1,4′]bipiperidinyl dihydrochloride], for which half-maximal inhibition (IC50) was put at 294 nM.
Turning to `Cc1cc(C)c2nc(C3CC3)n(Cc3ccc(/C=C/CN4CCN(C(C)C)CC4)cc3)c2n1` [Example 84, 2-Cyclopropyl-3-{4-[(E)-3-(4-isopropyl-piperazin-1-yl)-propenyl]-benzyl}-5,7-dimethyl-3H-imidazo[4,5-b]pyridine dihydrochloride], the IC50 turned out to be 181 nM.
Turning to `CCCCc1nc2c(C)cc(C)nc2n1Cc1ccc(/C=C/CN2CCN(C(C)C)CC2)cc1` [Example 85, 2-Butyl-3-{4-[(E)-3-(4-isopropyl-piperazin-1-yl)-propenyl]-benzyl}-5,7-dimethyl-3H-imidazo[4,5-b]pyridine dihydrochloride], the midpoint of inhibition, the IC50, lay at 834 nM.
The result for `CCCCc1nc2c(C)cc(C)nc2n1Cc1ccc(/C=C/CN2CCC(N3CCCCC3)CC2)cc1` [Example 86, 1′-{(E)-3-[4-(2-Butyl-5,7-dimethyl-imidazo[4,5-b]pyridin-3-ylmethyl)-phenyl]-allyl}-[1,4′]bipiperidine dihydrochloride] reads 481 nM; that for `Cc1cc(C)c2nc(C(F)(F)F)n(Cc3ccc(/C=C/CN4CCC(N5CCCCC5)CC4)cc3)c2n1` [Example 87, 1′-{(E)-3-[4-(5,7-Dimethyl-2-trifluoromethyl-imidazo[4,5-b]pyridin-3-ylmethyl)-phenyl]-allyl}-[1,4′]bipiperidinyl dihydrochloride], 296 nM.
In turn, `Cc1cc(C)c2nc(C(F)(F)F)n(Cc3ccc(/C=C/CN4CCC(N5CCN(C)CC5)CC4)cc3)c2n1` [Example 88, 5,7-Dimethyl-3-(4-{(E)-3-[4-(4-methyl-piperazin-1-yl)-piperidin-1-yl]-propenyl}-benzyl)-2-trifluoromethyl-3H-imidazo[4,5-b]pyridine trihydrochloride] returned an IC50 of 199 nM.
`Cc1cc(C)c2nc(C(F)(F)F)n(Cc3ccc(/C=C/CN4CCC(N5CCOCC5)CC4)cc3)c2n1` [Example 89, 5,7-Dimethyl-3-{4-[(E)-3-(4-morpholin-4-yl-piperidin-1-yl)-propenyl]-benzyl}-2-trifluoromethyl-3H-imidazo[4,5-b]pyridine dihydrochloride] gave an IC50 of 182 nM.

The values above are taken from patent US20090291942A1, “IMIDAZO PYRIDINE DERIVATIVES” (priority 2008, published 2009).
